Test results taken from publication PMC7560154, “Novel Antimicrobial Peptide from Temporin L in The Treatment of Staphylococcus pseudintermedius and Malassezia pachydermatis in Polymicrobial Inter-Kingdom Infection” (Antibiotics, 2020).
≈ marks a conversion by molar mass, not a printed value. Where a SMILES comes first, the peptide text is derived from it. [ ]: non-standard residue; d: D form.

Columns and labels:
MRSP biofilm formation = experiment: Biofilm formation, crystal violet assay, MRSP; type: cell-based, Staphylococcus pseudintermedius; conditions: sub-MIC 0.095 to 0.78 μM, 24 h
Procedure: (§1) Anti-biofilm activity of peptide 8 was examined by the crystal violet assay previously described with minor modifications. Microtiter plates were inoculated with bacteria at a final density of 10^6 CFU/mL and treated with peptide 8 ranging from 0.095 to 0.78 μM. Control cells were grown in the absence of peptide 8. After 24 h incubation at 37 °C, the supernatant was gently removed, and the wells were rinsed twice with PBS. The amount of biofilm formed in the wells was measured by crystal violet staining and the absorbance of the solution was measured at 595 nm.

[1] = tested on: methicillin-resistant S. pseudintermedius (MRSP); experiment: microbe, parasite or virus in culture; type: cell-based, Staphylococcus pseudintermedius
Procedure: (§2) MIC of all compounds was determined in Sabouraud Dextrose broth with 1% tween 80 (SB) medium, for M. pachydermatis, and Mueller–Hinton broth (MH), for S. pseudintermedius, by the broth microdilution assay (BMD) in 96-well microtiter plates, as previously reported. Specifically, SB containing 1% Tween 80 was used instead of RPMI 1640 medium. All compounds were dissolved in ethanol and ketoconazole in dimethyl sulfoxide (DMSO). The solutions were serially diluted in SB and MH two-fold from 0.19 to 50 μM. M. pachydermatis suspension was prepared from 3-day-old colonies grown on Sabouraud agar at 30 °C. The final concentration of the yeast inoculum suspensions was equivalent to 1–3 × 10^3 CFU/mL. Bacterial suspensions were diluted to yield an optical density (OD) around 0.5 at 595 nm and further diluted to a final concentration of 1 × 10^6 CFU/mL. The compounds were added to the microbial suspension in each well yielding a final cell concentration of 5 × 10^5 CFU/mL. Positive controls included oxacillin 5 μM (2 μg/mL) and vancomycin 1.4 μM (2 μg/mL) for S. pseudintermedius or ketoconazole 0.2 μM (0.125 μg/mL) for M. pachydermatis. Negative control wells were set to contain bacteria in MH or yeasts in SB plus the amount of ethanol used to dilute each compound. Medium turbidity was measured by a microtiter plate reader (Tecan, Milan, Italy) at 595 nm after 24 h for S. pseudintermedius and 48 h for M. pachydermatis. Absorbance was proportional to microbial growth. The MIC was defined as the lowest concentration of drug that caused a prominent decrease (≥90% inhibition) in visible growth relative to that of the growth control.

[2] = tested on: methicillin-susceptible S. pseudintermedius (MSSP); experiment: microbe, parasite or virus in culture; type: cell-based, Staphylococcus pseudintermedius
Procedure: as §2

[3] = ref unpublished results, cited from earlier work
M. pachydermatis [4] = tested on: M. pachydermatis
Procedure: as §2

MSSP biofilm formation = experiment: Biofilm formation, crystal violet assay, MSSP; type: cell-based, Staphylococcus pseudintermedius; conditions: sub-MIC 0.095 to 0.78 μM, 24 h
Procedure: as §1

[5] = in vivo model of acute inflammation; cited from earlier work
MSSP mature biofilm = experiment: Mature biofilm biomass, crystal violet assay, MSSP; type: cell-based, Staphylococcus pseudintermedius; conditions: MSSP one-day-old biofilm, up to 25 μM, 24 h
Procedure: Biofilms were allowed to form in each well of a 96-well microtiter plate, as described by Stepanovic. After 24 h, planktonic cells were aspirated, and the plates were washed with 200 μL of PBS. Cells biofilms were exposed to 200 μL of peptide 8 at the final concentration ranging from 6.25 to 25 μM and the plate was further incubated for 24 h at 37 °C. Positive controls were non-treated cells incubated with 200 μL of medium broth. At the end of the experiment crystal violet-staining was performed to assess biofilm mass.

M. pachydermatis [6] = experiment: Resistance acquisition test (serial subculture with sublethal peptide 8); type: cell-based, Malassezia pachydermatis
Procedure: To evaluate if the yeast acquired resistance to the drug, after a continued treatment, M. pachydermatis was subcultured with a sub lethal concentration of peptide 8 (1/2 MIC). Briefly, a final 3.12 μM peptide 8 concentration was added to yeast inoculum suspension equivalent to 1–3 × 10^6 CFU/mL in Sabouraud dextrose broth (SB) and incubated 72 h at 30 °C (inoculum 1). After this period, optical density was measured and a new yeast subculture with 3.12 μM of peptide 8 was prepared starting from inoculum 1 (inoculum 2). Three days after, optical density was again recorded and a new inoculum in presence of peptide 8 prepared. This was repeated until evident yeast death was observed.

CC[C@H](C)[C@H](NC(=O)[C@H](CCCNC(=N)N)NC(=O)[C@@H](CCCCN)NC(=O)[C@@H](CC(C)C)NC(=O)[C@H](Cc1ccccc1)NC(=O)[C@H](CCCCN)NC(=O)[C@H](CO)NC(=O)[C@H](Cc1ccccc1)NC(=O)[C@H](Cc1c[nH]c2ccccc12)NC(=O)[C@@H]1CCCN1C(=O)[C@@H](NC(=O)[C@@H](N)Cc1ccccc1)C(C)C)C(=O)N[C@@H](CC(C)C)C(N)=O [Peptide 8] (H-FVPWFSKF[dL][dK]RIL-NH2; N-terminus assumed)
Effect on biofilm formation (MRSP biofilm formation): ineffective
MBC ([1]; 24 h): 12.5 µM (≈ 21 µg/mL)
MIC ([1]; 24 h, read-out: MIC): 6.25 µM (≈ 10.5 µg/mL)
MBC/MIC Ratio ([1]; MRSP): 2
MBC ([2]; 24 h): 3.12 µM (≈ 5.24 µg/mL)
MIC ([2]; 24 h, read-out: MIC): 1.56 µM (≈ 2.62 µg/mL)
MBC/MIC Ratio ([2]; MSSP): 2
Aggregation state and conformation in aqueous solution ([3]; aqueous solution): monomeric with a random coil conformation
Aggregation in membrane mimetic environments ([3]; membrane mimetic environments): significant ability to aggregate
MMC/MIC Ratio (M. pachydermatis [4]; M. pachydermatis): 1
MMC Values (minimum mycocidal concentration) (M. pachydermatis [4]; ≥3 log10 reduction in colony count from starting inoculum, agar 72 h at 30 °C): 6.25 µM
Effect on biofilm formation (MSSP biofilm formation): ineffective
Anti-inflammatory activity [5]: potent anti-inflammatory activity
Effect on mature biofilm biomass (MSSP mature biofilm): did not affect the biomass
Log10 CFU/Ml After 15 Generation Subcultures Including TL48 (M. pachydermatis [6]; 3.12 μM (1/2 MIC), 15 subcultures (about 2 months), three independent experiments in triplicate): 2.10 ± 0.12 Log10 CFU/Ml
Log10 CFU/Ml After 1 Generation Subculture Including TL48 (M. pachydermatis [6]; 3.12 μM (1/2 MIC), Sabouraud dextrose broth, 72 h at 30 °C per subculture, three independent experiments in triplicate): 5.80 ± 0.25 Log10 CFU/Ml
Acquisition of resistance after prolonged treatment (M. pachydermatis [6]; 2 months of repeated sublethal concentration treatment): did not acquire resistance
